Test results taken from patent US20240316074A1 (priority 2021, published 2024).
Converted amounts (≈) assume the structure as drawn.

Columns and labels:
[1] = target: T1, SARS-CoV-2 spike protein S1 subunit (Severe acute respiratory syndrome coronavirus 2, UniProt P0DTC2); format: binding
T1 construct: Recombinant SARS-CoV-2 spike protein S1 subunit (˜72 kDa) containing an N-terminal His-tag; purchased RayBiotech (Peachtree Corners, GA)

[2] = target: T2, transporter ABCG2 (also called BCRP) (Homo sapiens, UniProt Q9UNQ0); settings: cited from earlier work
T2 sequence (Q9UNQ0 1-655): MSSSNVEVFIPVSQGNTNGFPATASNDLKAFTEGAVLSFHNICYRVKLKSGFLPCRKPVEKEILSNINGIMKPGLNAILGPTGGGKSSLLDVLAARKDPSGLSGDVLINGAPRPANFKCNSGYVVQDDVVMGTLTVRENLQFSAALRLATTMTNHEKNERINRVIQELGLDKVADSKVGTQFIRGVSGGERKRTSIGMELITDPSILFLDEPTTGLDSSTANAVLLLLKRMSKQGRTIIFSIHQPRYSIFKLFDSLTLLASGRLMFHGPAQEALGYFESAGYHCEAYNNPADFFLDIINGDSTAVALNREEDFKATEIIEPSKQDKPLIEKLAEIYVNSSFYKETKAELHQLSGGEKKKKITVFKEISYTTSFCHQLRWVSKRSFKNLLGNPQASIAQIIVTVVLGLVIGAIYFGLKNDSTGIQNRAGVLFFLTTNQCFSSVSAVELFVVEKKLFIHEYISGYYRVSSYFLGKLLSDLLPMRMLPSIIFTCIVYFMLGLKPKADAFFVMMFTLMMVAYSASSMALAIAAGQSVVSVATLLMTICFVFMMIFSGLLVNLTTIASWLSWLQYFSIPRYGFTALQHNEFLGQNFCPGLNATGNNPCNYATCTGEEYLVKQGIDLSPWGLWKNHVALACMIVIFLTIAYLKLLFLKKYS

[3] = target: T1, SARS-CoV-2 spike protein S1 subunit; assay: Equilibrium dissociation constants by rapid equilibrium dialysis; format: binding; settings: 37° C., PBS pH 7.2
Protocol: Equilibrium dissociation constants. The affinity constants for the binding of active compounds to the spike protein S1 subunit were determined by rapid equilibrium dialysis. First, the optimum time for full equilibration of the RED device obtained from ThermoFisher (Waltham, MA) was determined with each of the compounds by adding 1 μM spike protein in buffer (300 μL) to the protein chamber and adding blank phosphate buffered saline, pH 7.2 (500 μL) to the buffer chamber. CBGA or CBDA was spiked into the protein chamber at a final concentration of 2.5 μM. […] After centrifugation at 18,000 g for 30 min, the supernatant was removed and ligand concentration was measured using UHPLC-MS/MS. Next, the equilibrium dissociation constants of CBGA and CBDA were determined by incubating the spike protein S1 subunit with different concentrations of the ligands ranging from 0.05-500 μM in triplicate. After 5 h for CBGA or 4 h for CBDA, the concentrations of each ligand in the sample and buffer chambers were measured using UHPLC-MS/MS as described above. Data analysis and fitting was carried out using Microsoft Excel (Seattle, WA) and KaleidaGraph v4.1 (Reading, PA).

[4] = system: SARS-CoV-2 (WA1/2020); assay: microbe, parasite or virus in culture; format: cell-based; settings: Severe acute respiratory syndrome coronavirus 2, Vero C1008
[5] = system: SARS-CoV-2 (WA1/2020); format: cell-based
[6] = human volunteers, oral, 0.063 mg/kg; cited from earlier work
[7] = beagle dogs, oral, 1 mg/kg; cited from earlier work
[8] = target: T3, SARS-CoV-2 S1 protein (Severe acute respiratory syndrome coronavirus 2, UniProt P0DTC2); assay: MagMASS competition assay with SBP-1 (binding site determination)
T3 construct: Recombinant SARS-CoV-2 spike protein S1 subunit (˜72 kDa) containing an N-terminal His-tag; purchased RayBiotech (S1); LifeTein (SBP-1 peptide)

Row | Structure (SMILES) | Fold Peak Area Enrichment, Standards mixture [1] | Fold peak area enrichment [1] | binding in competitive binding MagMASS assays [1] | further results
1 | CCCCCc1cc(O)c2c(c1)OC(C)(CCC=C(C)C)C=C2 (stereo not drawn) [CBC, Cannabichromene] | 2.9 ± 0.75 | 2.9 ± 0.75 | weak or no binding | 
2 | C=C(C)[C@@H]1CCC(C)=C[C@H]1c1c(O)cc(CCCCC)cc1O [CBD, Cannabidiol] | 2.9 ± 0.72 | 2.9 ± 0.72 | weak or no binding | inhibition of the transporter ABCG2 [2]: inhibitors
3 | C=C(C)[C@@H]1CCC(C)=C[C@H]1c1c(O)cc(CCCCC)cc1OC [CBD-OMe] |  |  |  | Fold Peak Area Enrichment, Pure compound [1]: 1.5 ± 0.12
4 | C=C(C)[C@@H]1CCC(C)=C[C@H]1c1c(O)cc(CCCCC)c(C(=O)O)c1O [CBDA, Cannabidiolic acid] | 12.2 ± 0.52 | 12.2 ± 0.52 |  | Fold Peak Area Enrichment, Extract #5 [1]: 15.0 ± 0.5; Fold Peak Area Enrichment, Pure compound [1]: 15.5 ± 1.1; Kd [3]: 5.6 ± 2.2 µM; IC50 [4]: 24 µg/mL (≈ 66.9 µM); SARS-CoV-2 viral RNA in cells (anti-dsRNA staining) [5]: absence of SARS-CoV-2 viral RNA; maximum plasma concentrations [6]: 0.21 µM; bioavailability relative to CBD [7]: 2 fold; serum levels [7]: up to 1.42 μM; tolerability [7]: well tolerated; substrate of the efflux transporter ABCG2 [2]: substrate
5 | C=C(C)[C@@H]1CCC(C)=C[C@H]1c1c(O)cc(CCC)cc1O [CBDV, Cannabidivarin] | 1.6 ± 0.17 | 1.6 ± 0.17 |  | 
6 | CCCCCc1cc(O)c(C/C=C(\C)CCC=C(C)C)c(O)c1 [CBG, Cannabigerol] | 3.4 ± 0.82 | 3.4 ± 0.82 | weak or no binding | inhibition of the transporter ABCG2 [2]: inhibitors
7 | CCCCCc1cc(O)c(C/C=C(\C)CCC=C(C)C)c(OC)c1 [CBG-OMe] |  |  |  | Fold Peak Area Enrichment, Pure compound [1]: 1.8 ± 0.07
8 | CCCCCc1cc(O)c(C/C=C(\C)CCC=C(C)C)c(O)c1C(=O)O [CBGA, Cannabigerolic acid] | 20.5 ± 0.51 | 20.5 ± 0.51 |  | Fold Peak Area Enrichment, Pure compound [1]: 10.9 ± 1.3; Kd [3]: 19.8 ± 2.7 µM; IC50 [4]: 37 µg/mL (≈ 103 µM); SARS-CoV-2 viral RNA in cells (anti-dsRNA staining) [5]: absence of SARS-CoV-2 viral RNA
9 | CCCCCc1cc(O)c2c(c1)OC(C)(C)c1ccc(C)cc1-2 [CBN, Cannabinol] | 3.4 ± 0.78 | 3.4 ± 0.78 | weak or no binding | 
10 | CCCCCc1cc2c(c(O)c1C(=O)O)-c1cc(C)ccc1C(C)(C)O2 [CBNA, Cannabinolic acid] |  | 5.6 ± 1.4 |  | 
11 | Cc1ccc(NC(=O)c2ccc(CN3CCN(C)CC3)cc2)cc1Nc1nccc(-c2cccnc2)n1 [Imatinib, imatinib] |  |  |  | binding to the immobilized S1 protein in the MagMASS assay [1]: no binding
12 | CCCCCc1cc2c(c(O)c1C(=O)O)[C@@H]1C=C(C)CC[C@H]1C(C)(C)O2 [THCA-A, Tetrahydrocannabinolic acid] | 16.7 ± 2.2 | 16.7 ± 2.2 |  | Fold Peak Area Enrichment, Pure compound [1]: 19.7 ± 2.0
13 | C=CC(C)(C)c1cc(/C=C/C(=O)c2ccc(O)cc2)c(OC)cc1O [licochalcone A] |  |  |  | binding in the presence of SBP-1 ([8]; 2.8 μM SBP-1): reduced; MagMASS peak area enrichment lowered when SBP-1 was added ([8]; SBP-1 added to incubation with active S1 protein): 3 fold
14 | COc1c(C)c2c(c(O)c1C/C=C(\C)CCC(=O)O)C(=O)OC2 [mycophenolic acid] |  |  |  | binding to the immobilized S1 protein in the MagMASS assay [1]: no binding
15 | CCN(CC)CCCC(C)Nc1c2ccc(Cl)cc2nc2ccc(OC)cc12 (stereo not drawn) [quinacrine] |  |  |  | binding to the immobilized S1 protein in the MagMASS assay [1]: no binding
16 | CCCCCc1cc(O)c2c(c1)OC(C)(C)[C@@H]1CC=C(C)C[C@@H]21 [Δ^8-THC, Δ^8-Tetrahydrocannabinol] | 3.1 ± 0.81 | 3.1 ± 0.81 | weak or no binding | 
17 | CCCCCc1cc(O)c2c(c1)OC(C)(C)[C@@H]1CCC(C)=C[C@@H]21 [Δ^9-THC, Δ^9-Tetrahydrocannabinol] | 3.0 ± 0.77 | 3.0 ± 0.77 | weak or no binding | 
